Where two headings read alike, the source gives them in different places.
Assays:
Musca domestica L. = experiment: Contact test on non-porous tile, Musca domestica; assay type: in vivo; details: for synergizing effect on Cypermethrin: Musca domestica L., synergist applied with Cypermethrin; for mortality at 680 µg/mL: Musca domestica, single substance alone, 0.68 mg/ml, 48 h, read-out: Mortality %/time (h)
Method: 1 ml of Composition 1 was applied to the tile. […] 1 ml of Composition 8a was distributed on the tile. […] 1 ml of Composition 8a was distributed on a tile. […] At the end of the 30 minutes, the flies were transferred to an untreated area.
1 ml of Composition 3 was applied to the tile. […] 1 ml of Composition 8c was distributed on the tile. […] 1 ml of Composition 8c was distributed on a tile. […] At the end of the 30 minutes, the flies were transferred to an untreated area.
1 ml of Composition 9a was distributed on the tile. […] 1 ml of Composition 9a was distributed on a tile. […] At the end of the 30 minutes, the flies were transferred to an untreated area. […] 1 ml of Composition 10a was distributed on the tile. […] 1 ml of Composition 10a was distributed on a tile. […] At the end of the 30 minutes, the flies were transferred to an untreated area. […] 1 ml of Composition 8c was distributed on the tile. […] 1 ml of Composition 8c was distributed on a tile. […] At the end of the 30 minutes, the flies were transferred to an untreated area.
1 ml of Composition 5a, was distributed on the tile. […] 1 ml of Composition 6a was distributed on the tile. […] 1 ml of Composition 7a was distributed on the tile.
1 ml of Composition 3 was distributed on the tile. […] 1 ml of Composition 9a was distributed on the tile. […] 1 ml of Composition 11a was distributed on a tile. […] 1 ml of Composition 12a was distributed on a tile.
1 ml of Composition 3 was distributed on the tile. […] 1 ml of Composition 17a was distributed on a tile. […] 1 ml of Composition 18a was distributed on a tile. […] Each experiment (A-C) was conducted in duplicate.
1 ml of Composition 23a was distributed on the tile. […] 1 ml of Composition 20a was distributed on a tile. […] Each experiment (A-B) was conducted in duplicate.
1 ml of Composition 3 was distributed on the tile. […] 1 ml of Composition 25a was distributed on a tile. […] Each experiment (A-B) was conducted in duplicate.
1 ml of Composition 23a was distributed on the tile. […] 1 ml of Composition 27a was distributed on a tile. […] Each experiment (A-B) was conducted in duplicate.
1 ml of Composition 26a was distributed on a tile. […] 1 ml of Composition 26b was distributed on a tile. […] 1 ml of Composition 26c was distributed on a tile.
1 ml of Composition 22a was distributed on a tile. […] 1 ml of Composition 22b was distributed on a tile. […] 1 ml of Composition 22c was distributed on a tile.
1 ml of Composition 23a was distributed on the tile. […] 1 ml of Composition 44a was distributed on a tile.
1 ml of Composition 33 was distributed on a tile. […] 1 ml of Composition 33 was distributed on a tile. […] At the end of the 30 minutes, the flies were transferred to an untreated area.
1 ml of Composition 1 was distributed on the tile. […] 1 ml of Composition 34 was distributed on a tile. […] 1 ml of Composition 34 was distributed on a tile. […] At the end of the 30 minutes, the flies were transferred to an untreated area.
1 ml of Composition 3 was distributed on the tile. […] 1 ml of Composition 31a was distributed on a tile. […] 1 ml of Composition 31b was distributed on a tile. […] 1 ml of Composition 31b was distributed on a tile. […] At the end of the 30 minutes, the flies were transferred to an untreated area. […] 1 ml of Composition 38a was distributed on a tile. […] 1 ml of Composition 38a was distributed on a tile. […] At the end of the 30 minutes, the flies were transferred to an untreated area.
G) According to the invention. 1 ml of Composition 40a was distributed on a tile. […] Subsequently, after waiting for the solvent to evaporate, 10 flies were placed on top of the treated til

Blatta orientalis = details: for synergizing effect on Cypermethrin / Mortality %/time (h) (application): Blatta orientalis; for synergizing effect on Cypermethrin: synergist applied with Cypermethrin; for Mortality %: insects on treated tile; for Mortality %/time (h) (application): Table 37, concentrations in mg/ml in label
Method: Method: Contact test on non-porous tile measuring 400 cm^2 at a temperature of 28° C. Test duration: up to 72 hours after exposure of the insect to the insecticidal active substance.
(§1) Three tests were performed in parallel, A, B, and C, as follows: • A) Comparative. 1 ml of Composition 2 was applied to the tile. After waiting for the complete evaporation of the solvent, 10 cockroaches were placed on top of the treated tile, starting the test. • B) According to the invention. 1 ml of Composition 8b was distributed on the tile. After waiting for the complete evaporation of the solvent, 1 ml of Composition 2 was added to the same tile. Subsequently, after waiting for the solvent to evaporate, 10 cockroaches were placed on top of the treated tile, starting the test. • C) According to the invention. 1 ml of Composition 8b was distributed on a tile. After waiting for the complete evaporation of the solvent, 10 cockroaches were placed for 30 minutes on top of the treated tile. At the end of the 30 minutes, the cockroaches were transferred to an untreated area.
Method: Contact test on non-porous tile measuring 400 cm^2 at a temperature of 28° C. Test duration: up to 120 hours after exposure of the insect to the insecticidal active substance.
as §1, with “4a” for “2”, “8d” for “8b”, “After” for “Subsequently, after”
Six tests were performed in parallel, A, B, C, D, E and F, as follows: • A) Comparative. 1 ml of Composition 9b was distributed on the tile. After waiting for the complete evaporation of the solvent, 1 ml of Composition 4a was added to the same tile. Subsequently, after waiting for the solvent to evaporate, 10 cockroaches were placed on top of the treated tile, starting the test. • B) Comparative. 1 ml of Composition 9b was distributed on a tile. After waiting for the complete evaporation of the solvent, 10 cockroaches were placed for 30 minutes on top of the treated tile. At the end of the 30 minutes, the cockroaches were transferred to an untreated area. […] 1 ml of Composition 10b was distributed on the tile. After waiting for the complete evaporation of the solvent, 1 ml of Composition 4a was added to the same tile. Subsequently, after waiting for the solvent to evaporate, 10 cockroaches were placed on top of the treated tile, starting the test. • D) Comparative. 1 ml of Composition 10b was distributed on a tile. After waiting for the complete evaporation of the solvent, 10 cockroaches were placed for 30 minutes on top of the treated tile. At the end of the 30 minutes, the cockroaches were transferred to an untreated area. […] 1 ml of Composition 8d was distributed on the tile. After waiting for the complete evaporation of the solvent, 1 ml of Composition 4a was added to the same tile. Subsequently, after waiting for the solvent to evaporate, 10 cockroaches were placed on top of the treated tile, starting the test. • F) According to the invention. 1 ml of Composition 8d was distributed on a tile. After waiting for the complete evaporation of the solvent, 10 cockroaches were placed for 30 minutes on top of the treated tile. At the end of the 30 minutes, the cockroaches were transferred to an untreated area.

Blatta lateralis = experiment: Contact test on non-porous tile, Blatta lateralis; assay type: in vivo; set-up: Mortality %: concentration or dose not given beside the values; details: for Mortality %: 25° C, insects on treated tile; for Mortality %/time (h) (application): Table 37, Blatta lateralis, concentrations in mg/ml in label
Method: 1 ml of Composition 24 was distributed on the tile. […] 1 ml of Composition 20c was distributed on a tile. […] 1 ml of Composition 20d was distributed on a tile.
1 ml of Composition 24 was distributed on the tile. […] 1 ml of Composition 28 was distributed on a tile. […] Each experiment (A-B) was conducted in duplicate.
1 ml of Composition 24 was distributed on the tile. […] 1 ml of Composition 21 was distributed on a tile.
1 ml of Composition 4b was distributed on the tile. […] 1 ml of Composition 31c was distributed on a tile. […] 1 ml of Composition 31d was distributed on a tile. […] 1 ml of Composition 31d was distributed on a tile.
1 ml of Composition 24 was distributed on the tile. […] 1 ml of Composition 35 was distributed on a tile. […] 1 ml of Composition 40b was distributed on a tile. […] 1 ml of Composition 42 was distributed on a tile.

CCCCCCCCCCC(CO)CCCCCCCC (centres unmarked) [2-octyldodecanol]
synergizing effect on Cypermethrin (Musca domestica L.): synergistic effect, comparable to the activity shown by PBO | mortality at 680 µg/mL (Musca domestica L.): 20% | synergizing effect on Cypermethrin (Blatta orientalis): superior to that shown with PBO

CC1(C)C(C=C(Cl)Cl)C1C(=O)OC(C#N)c1cccc(Oc2ccccc2)c1 (centres unmarked) [Composition 4b, Cypermethrin]
Mortality % (Blatta lateralis; Example 31, 24 h): 0% | Mortality % (Blatta lateralis; Example 31, 48 h): 40% | Mortality %/time (h) (application) (Blatta lateralis; 48 h): 40/48 ^ %

COP(=O)(OC)SCn1c(=O)oc2cc(Cl)cnc21 [Composition 23b, Azamethiphos]
Mortality % (Blatta orientalis; Example 15, 21° C, 24 h): 10% | Mortality % (Blatta orientalis; Example 15, 21° C, 48 h): 17% | Mortality % (Blatta orientalis; Example 15, 21° C, 72 h): 23% | Mortality % (Blatta orientalis; Example 21, 25° C, 48 h): 17% | Mortality % (Blatta orientalis; Example 25, 21° C, 24 h): 10% | Mortality % (Blatta orientalis; Example 25, 21° C, 48 h): 17% | Mortality % (Blatta orientalis; Example 25, 21° C, 72 h): 23% | Mortality %/time (h) (application) (Blatta orientalis; 48 h): 17/48 ^ %

O=[N+]([O-])NC1=NCCN1Cc1ccc(Cl)nc1 [Composition 24, Imidacloprid]
Mortality % (Blatta lateralis; Example 16, 48 h): 20% | Mortality % (Blatta lateralis; Example 22, 48 h): 20% | Mortality % (Blatta lateralis; Example 26, 48 h): 20% | Mortality % (Blatta lateralis; Example 33, 48 h): 20% | Mortality %/time (h) (application) (Blatta lateralis; 48 h): 20/48 ^ %

CCCCCCCC/C=C\CCCCCCCCOC(C)=O [Composition 25b, Oleyl acetate]
Mortality %/time (h) (application) (Blatta orientalis; 48 h): 0/48 ^ %

CCCCC(O)CO (centres unmarked) [Composition 31c, 1,2-hexandiol]
Mortality %/time (h) (application) (Blatta lateralis; 48 h, listed as 1,2-hexandiol (0.05)): 14/48 ^ %

CCCCC(O)CO (centres unmarked) [Composition 31d, 1,2-hexandiol]
Mortality %/time (h) (application) (Blatta lateralis; 48 h, listed as 1,2-hexandiol (0.07)): 20/48 ^ %

CC1(C)C(C=C(Cl)Cl)C1C(=O)OC(C#N)c1cccc(Oc2ccccc2)c1 (centres unmarked) [Composition 46b, Cypermethrin]
Mortality % (Blatta orientalis; Example 36, 25° C, 24 h): 8% | Mortality % (Blatta orientalis; Example 36, 25° C, 48 h): 17% | Mortality %/time (h) (application) (Blatta orientalis; 48 h, listed as Cypermethrin (0.10)): 17/48 ^ %

CCCCC(CC)COC(=O)OCC(CC)CCCC (centres unmarked) [bis(2-ethylhexyl)-carbonate]
synergizing effect on Cypermethrin (Musca domestica L.): high synergizing effect | mortality at 680 µg/mL (Musca domestica L.): 19% | synergizing effect on Cypermethrin (Blatta orientalis): synergizing effect

CCCCCCCCCCCCOC(C)=O [dodecyl acetate]
synergizing effect on Cypermethrin (Blatta orientalis): excellent-fine synergizing effect

CCCCCCCCOC(C)=O [n-Octyl acetate]
synergizing effect on Cypermethrin (Blatta orientalis): excellent-fine synergizing effect

Alcohol oleic [Composition 20b]
Mortality %/time (h) (application) (Blatta orientalis; 48 h): 0/48 ^ %

oleic alcohol [Composition 8b]
Mortality %/time (h) (application) (Blatta orientalis; 48 h): 0/48 ^ %
